Experimental data taken from ChEMBL document CHEMBL1629615, “Intrapulmonary pharmacokinetics and pharmacodynamics of posaconazole at steady state in healthy subjects” (Antimicrob Agents Chemother, 2009).

Assays:
[1] = Cmax in healthy human lung epithelial lining fluid at 200 mg, po every 12 hrs for 5 days; assay type: ADME, organism-based; parameters: dose 200 mg, route oral
[2] = tested on: Plasma; test: Cmax in healthy human plasma assessed as hydroxyitraconazole at 200 mg, po every 12 hrs for 5 days; assay type: ADME, organism-based; parameters: dose 200 mg, route oral; settings: in vivo
[3] = Cmax in healthy human alveolar cell assessed as hydroxyitraconazole at 200 mg, po every 12 hrs for 5 days; assay type: ADME, organism-based, Lung, Pneumocyte; parameters: dose 200 mg, route oral; settings: in vivo
[4] = tested on: Plasma; test: AUC (0 to 24 hrs) in healthy human plasma assessed as hydroxyitraconazole at 200 mg, po every 12 hrs for 5 days; assay type: ADME, organism-based; parameters: time < 24 hr, dose 200 mg, route oral; settings: in vivo
[5] = AUC (0 to 24 hrs) in healthy human lung epithelial lining fluid assessed as hydroxyitraconazole at 200 mg, po every 12 hrs for 5 days; assay type: ADME, organism-based; parameters: dose 200 mg, time < 24 hr, route oral; settings: in vivo
[6] = AUC (0 to 24 hrs) in healthy human alveolar cell assessed as hydroxyitraconazole at 200 mg, po every 12 hrs for 5 days; assay type: ADME, organism-based, Pneumocyte; parameters: time < 24 hr, dose 200 mg, route oral; settings: in vivo

SMILES: CC(O)C(C)n1ncn(-c2ccc(N3CCN(c4ccc(OCC5COC(Cn6cncn6)(c6ccc(Cl)cc6Cl)O5)cc4)CC3)cc2)c1=O (stereo unspecified) [HYDROXYITRACONAZOLE]
- Cmax [1]: 3300 ng/mL
- Cmax [2]: 1000 ng/mL
- Cmax [3]: 6600 ng/mL
- AUC [4]: 60200 ng·h/mL
- AUC [5]: 18900 ng·h/mL
- AUC [6]: 134000 ng·h/mL
